Results taken from patent publication US20250026752A1, “POSITIVE ALLOSTERIC MODULATORS OF THE MUSCARINIC ACETYLCHOLINE RECEPTOR M4” (Vanderbilt University, priority 2021, published 2025).

Biological target: T1, human mAChR M4 (Homo sapiens, UniProt P08173)
T1 construct: expressed in transfected cells; host or cells: CHO-K1 (ATCC), stably expressing hM4 and Gqi5
T1 sequence (P08173 1-479): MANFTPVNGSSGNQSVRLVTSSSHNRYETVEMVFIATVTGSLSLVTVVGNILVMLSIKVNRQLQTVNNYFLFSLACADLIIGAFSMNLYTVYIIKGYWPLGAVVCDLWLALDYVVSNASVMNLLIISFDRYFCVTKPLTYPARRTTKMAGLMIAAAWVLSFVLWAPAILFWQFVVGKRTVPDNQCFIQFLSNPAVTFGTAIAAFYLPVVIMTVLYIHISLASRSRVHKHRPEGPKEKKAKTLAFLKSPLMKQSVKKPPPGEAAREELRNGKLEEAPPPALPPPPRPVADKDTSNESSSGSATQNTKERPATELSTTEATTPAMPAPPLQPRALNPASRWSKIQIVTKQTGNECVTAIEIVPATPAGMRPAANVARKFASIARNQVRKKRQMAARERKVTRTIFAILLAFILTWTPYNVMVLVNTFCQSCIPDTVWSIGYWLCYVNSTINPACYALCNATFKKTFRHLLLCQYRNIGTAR
Experiment: mAChR M4 cell-based functional assay: calcium flux (Fluo-4, FDSS), positive allosteric modulator activity on the EC20 acetylcholine response, hM4-Gqi5 CHO-K1 cells
Settings: for Emax at 30 µM: CHO-K1, human M4, % ACh maximum at 30 μM; for EC50: human M4, PAM activity on EC20 acetylcholine response, calcium flux, read-out: Human M4 EC50
Procedure, shortened: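 Potentiation was taken as the concentration-dependent rise in the EC20 acetylcholine calcium response, fitted by a four-parameter logistic with EC20 as baseline. Fluo-4-loaded hM4-Gqi5 CHO-K1 cells received 11-point, threefold-diluted compound before acetylcholine at 144 s; FDSS read at 1 Hz.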

Emax at 30 µM [%] | EC50 [nM] | Structure (SMILES)
62 | 7690 | Cc1ccc(F)c(Oc2cnc3c(c2)CN(c2nc(C)nc4ccc(Cl)cc24)CC3)c1 [Compound 154, 6-chloro-4-[3-(2-fluoro-5-methyl-phenoxy)-7,8-dihydro-5H-1,6-naphthyridin-6-yl]-2-methyl-quinazoline]
98 | 60 | CC1Cc2ncc(C(F)(F)F)cc2CN1c1ncnc2ccc(F)cc12 (centres unmarked) [Compound 155, 6-fluoro-4-[7-methyl-3-(trifluoromethyl)-7,8-dihydro-5H-1,6-naphthyridin-6-yl]quinazoline]
99 | 220 | Cc1nc(N2Cc3cc(C(F)(F)F)cnc3CC2C)c2cc(F)ccc2n1 (centres unmarked) [Compound 156, 6-fluoro-2-methyl-4-[7-methyl-3-(trifluoromethyl)-7,8-dihydro-5H-1,6-naphthyridin-6-yl]quinazoline]
95 | 220 | Cc1nc(N2Cc3cc(C(F)(F)F)cnc3C(C)C2)c2cc(F)ccc2n1 (centres unmarked) [Compound 157, 6-fluoro-2-methyl-4-[8-methyl-3-(trifluoromethyl)-7,8-dihydro-5H-1,6-naphthyridin-6-yl]quinazoline]
80 | 270 | Fc1cc2ncnc(N3CCc4ncc(Oc5ccccc5F)cc4C3)c2cc1F [Compound 158, 6,7-difluoro-4-[3-(2-fluorophenoxy)-7,8-dihydro-5H-1,6-naphthyridin-6-yl]quinazoline]
81 | 680 | Fc1cccc(Oc2cnc3c(c2)CN(c2ncnc4cc(F)c(F)cc24)CC3)c1 [Compound 159, 6,7-difluoro-4-[3-(3-flurophenoxy)-7,8-dihydro-5H-1,6-naphthyridin-6-yl]quinazoline]
90 | 30 | Cc1ccc2ncnc(N3CCc4ncc(C5CC5)cc4C3)c2c1 [Compound 160, 4-(3-cyclopropyl-7,8-dihydro-5H-1,6-naphthyridin-6-yl)-6-methyl-quinazoline]
83 | 110 | COc1ccc2ncnc(N3CCc4ncc(C5CC5)cc4C3)c2c1 [Compound 161, 4-(3-cyclopropyl-7,8-dihydro-5H-1,6-naphthyridin-6-yl)-6-methoxy-quinazoline]
88 | 60 | Fc1cc2ncnc(N3CCc4ncc(C5CC5)cc4C3)c2cc1F [Compound 162, 4-(3-cyclopropyl-7,8-dihydro-5H-1,6-naphthyridin-6-yl)-6,7-difluoro-quinazoline]
57 | > 10000 | FC(F)(F)c1ccc2nc(N3CCc4ncc(C5CC5)cc4C3)nc(N3CCc4ncc(C5CC5)cc4C3)c2c1 [Compound 163, 2,4-bis(3-cyclopropyl-7,8-dihydro-5H-1,6-naphthyridin-6-yl)-6-(trifluoromethyl)quinazoline]
75 | 590 | Fc1ccc2ncnc(N3CCc4ncc(Cc5ccccc5F)cc4C3)c2c1 [Compound 164, 6-fluoro-4-[3-[(2-fluorophenyl)methyl]-7,8-dihydro-5H-1,6-naphthyridin-6-yl]quinazoline]
77 | 1810 | Cc1nc(N2CCc3ncc(C4CC4)cc3C2)c2cc(C(F)(F)F)ccc2n1 [Compound 165, 4-(3-cyclopropyl-7,8-dihydro-5H-1,6-naphthyridin-6-yl)-2-methyl-6-(trifluoromethyl)quinazoline]
70 | 420 | COc1ccc2nc(Cl)nc(N3CCc4ncc(C(F)(F)F)cc4C3)c2c1 [Compound 166, 2-chloro-6-methoxy-4-[3-(trifluoromethyl)-7,8-dihydro-5H-1,6-naphthyridin-6-yl]quinazoline]
72 | 350 | COc1cc2c(N3CCc4ncc(C(F)(F)F)cc4C3)nc(Cl)nc2cc1F [Compound 167, 2-chloro-7-fluoro-6-methoxy-4-[3-(trifluoromethyl)-7,8-dihydro-5H-1,6-naphthyridin-6-yl]quinazoline]
71 | 510 | COc1ccc2nc(C)nc(N3CCc4ncc(C(F)(F)F)cc4C3)c2c1 [Compound 168, 6-methoxy-2-methyl-4-[3-(trifluoromethyl)-7,8-dihydro-5H-1,6-naphthyridin-6-yl]quinazoline]
74 | 260 | COc1cc2c(N3CCc4ncc(C(F)(F)F)cc4C3)nc(C)nc2cc1F [Compound 169, 7-fluoro-6-methoxy-2-methyl-4-[3-(trifluoromethyl)-7,8-dihydro-5H-1,6-naphthyridin-6-yl]quinazoline]
82 | 490 | Fc1ccc(Cc2cnc3c(c2)CN(c2ncnc4ccc(F)cc24)CC3)cc1 [Compound 170, 6-fluoro-4-[3-[(4-fluorophenyl)methyl]-7,8-dihydro-5H-1,6-naphthyridin-6-yl]quinazoline]
50 | 1280 | Fc1cc2c(N3CCc4ncc(C(F)(F)F)cc4C3)nc(Cl)nc2cc1Cl [Compound 171, 2,7-dichloro-6-fluoro-4-[3-(trifluoromethyl)-7,8-dihydro-5H-1,6-naphthyridin-6-yl]quinazoline]
81 | 810 | Cc1nc(N2CCc3ncc(C(F)(F)F)cc3C2)c2cc(F)c(C)cc2n1 [Compound 172, 6-fluoro-2,7-dimethyl-4-[3-(trifluoromethyl)-7,8-dihydro-5H-1,6-naphthyridin-6-yl]quinazoline]
50 | 170 | Fc1ccc2nc(C(F)(F)F)nc(N3CCc4ncc(C(F)(F)F)cc4C3)c2c1 [Compound 173, 6-fluoro-2-(trifluoromethyl)-4-[3-(trifluoromethyl)-7,8-dihydro-5H-1,6-naphthyridin-6-yl]quinazoline]
82 | 140 | [2H]c1nc(N2CCc3ncc(-c4cnc(C)s4)cc3C2)c2cc(C)ccc2n1 [Compound 174, 5-[6-(2-deuterio-6-methyl-quinazolin-4-yl)-7,8-dihydro-5H-1,6-naphthyridin-3-yl]-2-methyl-thiazole]
77 | 560 | Cc1ccc2nc(C3CC3)nc(N3CCc4ncc(-c5cnn(C6CC6)c5)cc4C3)c2c1 [Compound 175, 2-cyclopropyl-4-[3-(1-cyclopropylpyrazol-4-yl)-7,8-dihydro-5H-1,6-naphthyridin-6-yl]-6-methyl-quinazoline]
73 | 740 | Cc1ccc2nc(C3CC3)nc(N3CCc4ncc(-c5cn(C)nc5C)cc4C3)c2c1 [Compound 176, 2-cyclopropyl-4-[3-(1,3-dimethylpyrazol-4-yl)-7,8-dihydro-5H-1,6-naphthyridin-6-yl]-6-methyl-quinazoline]
92 | 60 | Cc1ccc2nc(C)nc(N3CCc4ncc(C(F)(F)F)cc4C3)c2c1 [Compound 177, 2,6-dimethyl-4-[3-(trifluoromethyl)-7,8-dihydro-5H-1,6-naphthyridin-6-yl]quinazoline]
112 | 1900 | Fc1ccc2nc(C3CC3)nc(N3CCc4ncc(C(F)(F)F)cc4C3)c2c1 [Compound 178, 2-cyclopropyl-6-fluoro-4-[3-(trifluoromethyl)-7,8-dihydro-5H-1,6-naphthyridin-6-yl]quinazoline]
